In ChEMBL document CHEMBL1136361, “5-amino-1-(2,6-dichloro-4-trifluoromethyl-phenyl)-3-[3H3]-methylsulfanyl-1H-pyrazole-4-carbonitrile (CTOM): synthesis and characterization of a novel and selective insect GABA receptor radioligand” (Bioorg Med Chem Lett, 2003):

Tests used:
[1] = In vitro binding affinity against GABA receptor in mouse brain; assay type: tissue-based
[2] = In vitro binding affinity against GABA receptor in house fly; set-up: species or system Musca domestica
[3] = Mortality percent was determined in flea; range is 50-100%; assay type: ADME; settings: pulicinae

Ki [1] [nM] | Ki [2] [nM] | Structure (SMILES) | Mortality [3] [%]
4 | 8 | CSc1nn(-c2c(Cl)cc(C(F)(F)F)cc2Cl)c(N)c1C#N | 
 |  | N#Cc1nn(-c2c(Cl)cc(C(F)(F)F)cc2Cl)c(N)c1[S+]([O-])C(F)(F)F (stereo not drawn) [FIPRONIL] | 50
